Values quoted from earlier work, collected in US20030113270A1, “Vasoactive intestinal peptides for glaucomatous retinopathy” (priority 2001, published 2003).
Where no end group is shown, it is not given here.

System: neuronal survival

| Substance | potency in promoting neuronal survival relative to VIP (more potent than VIP) [fold] | neuroprotection (Alzheimer's disease-relevant models) |
| --- | --- | --- |
| Stearyl-norleucine^17-VIP [SNV] | 100 | – |
| vasoactive intestinal polypeptide (HSDAVFTDNYTRLRKQMAVKKYLNSILN; ends and bridges not checked; UniProt P01282 125-152, looked up) [VIP, 28 amino acid neuropeptide] | – | provide neuroprotection |
